According to patent US20060069132A1, “Azolecarboxamide herbicides” (priority 2004, published 2006):

Columns and labels:
morningglory = assay: Test B pre-/postemergence herbicide test; type: in vivo, Ipomoea coccinea; details: for Morningglory plant response rating: postemergence
In short: (§1)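 Flooded paddy rice and barnyardgrass were treated at the 2-leaf stage; upland plantings received compound either on sown seed or on 1- to 4-leaf seedlings. All were kept 13–15 days in a greenhouse and scored visually, 0–100, relative to untreated plants.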

barnyardgrass [1] = assay: Test B pre-/postemergence herbicide test; type: in vivo, Echinochloa crus-galli
In short: as §1

Surinam grass = assay: Test B pre-/postemergence herbicide test; type: in vivo, Urochloa decumbens; details: for Surinam Grass plant response rating: postemergence
In short: as §1

wild oat = assay: Test B postemergence herbicide test; type: in vivo, Avena fatua; details: for Oat, Wild plant response rating: postemergence
In short: (§2)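 After treating 2-leaf paddy plants or 2–18 cm postemergence plants (1 to 4 leaves) with formulated chemical, researchers kept them in a greenhouse for 13–15 days. Effects were judged visually versus controls: 0 indicates none, 100 total control.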

large crabgrass = assay: Test B pre-/postemergence herbicide test; type: in vivo, Digitaria sanguinalis
In short: as §1

blackgrass = assay: Test B postemergence herbicide test; type: in vivo, Alopecurus myosuroides; details: scale 0 (no effect) to 100 (complete control); for Blackgrass plant response rating: postemergence, visual rating
In short: as §2

ducksalad = assay: Test B flooded paddy test; type: in vivo, Heteranthera limosa; details: 1000 g ai/ha, scale 0 to 100 (0 no effect, 100 complete control)
In short: as §2

velvetleaf = assay: Test B pre-/postemergence herbicide test; type: in vivo, Abutilon theophrasti; details: for Velvetleaf plant response rating: postemergence
In short: as §1

corn = assay: Test B pre-/postemergence herbicide test; type: in vivo, Zea mays
In short: as §1

barnyardgrass [2] = assay: Test B flooded paddy test; type: in vivo, Echinochloa crus-galli; details: 1000 g ai/ha, scale 0 to 100 (0 no effect, 100 complete control)
In short: as §2

pigweed = assay: Test B pre-/postemergence herbicide test; type: in vivo, Amaranthus retroflexus; details: for Pigweed plant response rating: postemergence
In short: as §1

rice = assay: Test B flooded paddy test; type: in vivo, Oryza sativa; details: 1000 g ai/ha, scale 0 to 100 (0 no effect, 100 complete control)
In short: as §2

[3] = system: small flower umbrella sedge; assay: Test B flooded paddy test; type: in vivo, Cyperus difformis; details: 1000 g ai/ha, scale 0 to 100 (0 no effect, 100 complete control)
In short: as §2

giant foxtail = assay: Test B pre-/postemergence herbicide test; type: in vivo, Setaria faberi
In short: as §1

wheat = assay: Test B postemergence herbicide test; type: in vivo, Triticum aestivum; parameters: key to Wheat plant response rating: 0 = no effect, 100 = complete control; details: for Wheat plant response rating: postemergence
In short: as §2

[4] = Postemergence, 500 g ai/ha, visual rating after 13 to 15 days, scale 0 (no effect) to 100 (complete control)
[5] = 125 g ai/ha, visual rating, scale 0 (no effect) to 100 (complete control)
[6] = preemergence, 125 g ai/ha, 0 to 100 scale, 0 is no effect, 100 is complete control
[7] = Preemergence, 500 g ai/ha, scale 0 to 100
[8] = postemergence, 125 g ai/ha, visual rating, scale 0 (no effect) to 100 (complete control)
[9] = 125 g ai/ha, 0 = no effect, 100 = complete control, preemergence
[10] = 500 g ai/ha, visual rating, 0 = no effect, 100 = complete control, preemergence
[11] = 500 g ai/ha, scale 0 to 100, 0 is no effect, 100 is complete control
[12] = postemergence, 500 g ai/ha, visual rating, scale 0 (no effect) to 100 (complete control)
[13] = postemergence, 500 g ai/ha, scale 0 to 100, 0 is no effect, 100 is complete control
[14] = 500 g ai/ha, visual rating 0-100, 0 no effect, 100 complete control, preemergence
[15] = 500 g ai/ha, visual rating, scale 0 (no effect) to 100 (complete control)

CCn1nc(C(C)(C)C)cc1C(=O)Nc1cccc(C(=O)OC)c1 [Compound 81]
60: Barnyardgrass plant response rating (barnyardgrass [1]; [7]) | Plant response rating, Surinam Grass (Surinam grass; [4]) | Rice plant response rating (rice; visual rating, 13 to 15 days) | Foxtail, Giant plant response rating (giant foxtail; [7])
50: Barnyardgrass plant response rating (barnyardgrass [2]; visual rating, 13 to 15 days) | Pigweed plant response rating (pigweed; [5]) | Plant response rating, Foxtail, Giant (giant foxtail; [4])
30: Plant response rating, Morningglory (morningglory; [4]) | Plant response rating, Oat, Wild (wild oat; [4]) | Plant response rating, Corn (corn; [4])
90: Plant response rating, Barnyardgrass (barnyardgrass [1]; [4]) | Plant response rating, Velvetleaf (velvetleaf; [4]) | Plant response rating, Pigweed (pigweed; [4])
80: Ducksalad plant response rating (ducksalad; visual rating, 13 to 15 days) | Velvetleaf plant response rating (velvetleaf; [5]) | Sedge, Umbrella plant response rating ([3]; visual rating, 13 to 15 days)
40: Surinam Grass plant response rating (Surinam grass; [5]) | Plant response rating, Wheat (wheat; [4])
70: Barnyardgrass plant response rating (barnyardgrass [1]; [8])
10: Plant response rating, Morningglory (morningglory; [6]) | Plant response rating, Barnyardgrass (barnyardgrass [1]; [6]) | Crabgrass, Large plant response rating (large crabgrass; [7]) | Crabgrass, Large plant response rating (large crabgrass; [8]) | Corn plant response rating (corn; [8]) | Plant response rating, Foxtail, Giant (giant foxtail; [6])
0: Morningglory plant response rating (morningglory; [5]) | Plant response rating, Surinam Grass (Surinam grass; [6]) | Plant response rating, Crabgrass, Large (large crabgrass; [6]) | Blackgrass plant response rating (blackgrass; 125 g ai/ha) | Plant response rating, Velvetleaf (velvetleaf; [6]) | Corn plant response rating (corn; [7]) | Plant response rating, Corn (corn; [6])
20: Oat, Wild plant response rating (wild oat; [5]) | Plant response rating, Crabgrass, Large (large crabgrass; [4]) | Plant response rating, Blackgrass (blackgrass; Postemergence, 500 g ai/ha, visual rating after 13 to 15 days) | Plant response rating, Pigweed (pigweed; [6]) | Foxtail, Giant plant response rating (giant foxtail; [8]) | Wheat plant response rating (wheat; [5])

CCn1nc(C(C)(C)C)cc1C(=O)Nc1cc(C(=O)OC(C)C)c(F)cc1F [Compound 248]
0: Morningglory plant response rating (0 to 100 scale) (morningglory; [9]) | Plant response rating, Morningglory (morningglory; [10]) | Barnyardgrass plant response rating (0 to 100 scale) (barnyardgrass [1]; [9]) | Velvetleaf plant response rating (0 to 100 scale) (velvetleaf; [9]) | Corn plant response rating (0 to 100 scale) (corn; [9]) | Plant response rating, Corn (corn; [10]) | Pigweed plant response rating (0 to 100 scale) (pigweed; [9])
40: Barnyardgrass plant response rating (barnyardgrass [1]; [12]) | Plant response rating, Crabgrass, Large (large crabgrass; [10]) | Barnyardgrass plant response rating (barnyardgrass [2]) | Wheat plant response rating (wheat; [11])
50: Morningglory plant response rating (morningglory; [11]) | Rice plant response rating (rice) | Sedge, Umbrella plant response rating [3]
80: Pigweed plant response rating (pigweed; [11])
20: Morningglory plant response rating (morningglory; [5]) | Plant response rating, Barnyardgrass (barnyardgrass [1]; [10]) | Surinam Grass plant response rating (0 to 100 scale) (Surinam grass; [9]) | Surinam Grass plant response rating (Surinam grass; [11]) | Crabgrass, Large plant response rating (0 to 100 scale) (large crabgrass; [9]) | Crabgrass, Large plant response rating (large crabgrass; [13]) | Blackgrass plant response rating (blackgrass; 125 g ai/ha) | Plant response rating, Velvetleaf (velvetleaf; [10]) | Velvetleaf plant response rating (velvetleaf; [5]) | Corn plant response rating (corn; [8]) | Foxtail, Giant plant response rating (0 to 100 scale) (giant foxtail; [9]) | Foxtail, Giant plant response rating (giant foxtail; [8])
10: Barnyardgrass plant response rating (barnyardgrass [1]; [8]) | Surinam Grass plant response rating (Surinam grass; [5]) | Crabgrass, Large plant response rating (large crabgrass; [8])
60: Plant response rating, Surinam Grass (Surinam grass; [10]) | Oat, Wild plant response rating (wild oat; [11]) | Pigweed plant response rating (pigweed; [5]) | Plant response rating, Foxtail, Giant (giant foxtail; [10])
30: Oat, Wild plant response rating (wild oat; [5]) | Blackgrass plant response rating (blackgrass; 500 g ai/ha) | Ducksalad plant response rating (ducksalad) | Velvetleaf plant response rating (velvetleaf; [11]) | Corn plant response rating (corn; [13]) | Foxtail, Giant plant response rating (giant foxtail; [13]) | Wheat plant response rating (wheat; [5])

CCN(CC)C(=O)c1cccc(NC(=O)c2cc(C(C)(C)C)nn2CC)n1 [Compound 145]
60: Velvetleaf plant response rating (velvetleaf; [15])
0: Morningglory plant response rating (morningglory; [5]) | Barnyardgrass plant response rating (barnyardgrass [1]; [8]) | Plant response rating, Corn (corn; [6])
50: Velvetleaf plant response rating (velvetleaf; [5])
30: Plant response rating, Morningglory (morningglory; [6]) | Plant response rating, Surinam Grass (Surinam grass; [6]) | Oat, Wild plant response rating (wild oat; [15]) | Foxtail, Giant plant response rating (giant foxtail; [8])
100: Plant response rating, Barnyardgrass (barnyardgrass [1]; [14]) | Plant response rating, Crabgrass, Large (large crabgrass; [14]) | Plant response rating, Velvetleaf (velvetleaf; [14]) | Plant response rating, Pigweed (pigweed; [14]) | Pigweed plant response rating (pigweed; [15]) | Plant response rating, Pigweed (pigweed; [6]) | Plant response rating, Foxtail, Giant (giant foxtail; [14])
20: Morningglory plant response rating (morningglory; [15]) | Surinam Grass plant response rating (Surinam grass; [5]) | Surinam Grass plant response rating (Surinam grass; [15]) | Corn plant response rating (corn; [12]) | Wheat plant response rating (wheat; [15])
70: Plant response rating, Barnyardgrass (barnyardgrass [1]; [6]) | Ducksalad plant response rating (ducksalad; visual rating, 13 to 15 days) | Barnyardgrass plant response rating (barnyardgrass [2]; visual rating, 13 to 15 days)
90: Pigweed plant response rating (pigweed; [5]) | Sedge, Umbrella plant response rating ([3]; visual rating, 13 to 15 days)
10: Oat, Wild plant response rating (wild oat; [5]) | Crabgrass, Large plant response rating (large crabgrass; [8]) | Crabgrass, Large plant response rating (large crabgrass; [12]) | Blackgrass plant response rating (blackgrass; 125 g ai/ha) | Blackgrass plant response rating (blackgrass; 500 g ai/ha) | Plant response rating, Corn (corn; [14]) | Corn plant response rating (corn; [8])
80: Plant response rating, Surinam Grass (Surinam grass; [14]) | Plant response rating, Velvetleaf (velvetleaf; [6]) | Plant response rating, Foxtail, Giant (giant foxtail; [6])
40: Plant response rating, Morningglory (morningglory; [14]) | Barnyardgrass plant response rating (barnyardgrass [1]; [12]) | Rice plant response rating (rice; visual rating, 13 to 15 days) | Foxtail, Giant plant response rating (giant foxtail; [12])

CCn1nc(C(C)(C)C)cc1C(=O)Nc1cccc(S(=O)(=O)C(F)(F)F)c1 [Compound 134]
70: Plant response rating, Foxtail, Giant (giant foxtail; [14])
50: Plant response rating, Barnyardgrass (barnyardgrass [1]; [6]) | Plant response rating, Surinam Grass (Surinam grass; [14])
90: Ducksalad plant response rating (ducksalad; visual rating, 13 to 15 days) | Plant response rating, Velvetleaf (velvetleaf; [14]) | Pigweed plant response rating (pigweed; [15])
30: Plant response rating, Surinam Grass (Surinam grass; [6]) | Oat, Wild plant response rating (wild oat; [5]) | Oat, Wild plant response rating (wild oat; [15]) | Crabgrass, Large plant response rating (large crabgrass; [8]) | Crabgrass, Large plant response rating (large crabgrass; [12]) | Velvetleaf plant response rating (velvetleaf; [5]) | Plant response rating, Velvetleaf (velvetleaf; [6]) | Corn plant response rating (corn; [12]) | Foxtail, Giant plant response rating (giant foxtail; [8])
100: Plant response rating, Crabgrass, Large (large crabgrass; [14]) | Plant response rating, Pigweed (pigweed; [14]) | Plant response rating, Pigweed (pigweed; [6])
0: Blackgrass plant response rating (blackgrass; 125 g ai/ha) | Plant response rating, Corn (corn; [6])
80: Plant response rating, Barnyardgrass (barnyardgrass [1]; [14]) | Plant response rating, Crabgrass, Large (large crabgrass; [6]) | Pigweed plant response rating (pigweed; [5]) | Sedge, Umbrella plant response rating ([3]; visual rating, 13 to 15 days)
10: Plant response rating, Morningglory (morningglory; [6]) | Plant response rating, Corn (corn; [14]) | Wheat plant response rating (wheat; [5])
20: Plant response rating, Morningglory (morningglory; [14]) | Morningglory plant response rating (morningglory; [5]) | Barnyardgrass plant response rating (barnyardgrass [1]; [8]) | Surinam Grass plant response rating (Surinam grass; [5]) | Blackgrass plant response rating (blackgrass; 500 g ai/ha) | Corn plant response rating (corn; [8]) | Plant response rating, Foxtail, Giant (giant foxtail; [6]) | Wheat plant response rating (wheat; [15])
60: Barnyardgrass plant response rating (barnyardgrass [2]; visual rating, 13 to 15 days) | Rice plant response rating (rice; visual rating, 13 to 15 days)
40: Morningglory plant response rating (morningglory; [15]) | Barnyardgrass plant response rating (barnyardgrass [1]; [12]) | Surinam Grass plant response rating (Surinam grass; [15]) | Velvetleaf plant response rating (velvetleaf; [15]) | Foxtail, Giant plant response rating (giant foxtail; [12])
